Assay results from PubChem BioAssay AID1963449 (Molecular Pharmacology Branch, DTP, NCI, 2024).
Where “and” joins values, the source holds several entries; their conditions need not be identical. Identical values can stand only once.

System: 596521-263-R-J1-PDC complex spheroid growth
Test: Anticancer human tumor 596521-263-R-J1-PDC patient-derived soft tissue sarcoma cell line growth inhibition [Asc]
Conditions: for viability, T/C: stronger effect = lower value
Outline: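 Concentration series start at each agent's clinical Cmax, or at 10 microM when none is established, and drop in half-log steps; agents are applied alone or together to complex spheroids built with HUVEC and hMSC.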
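Also: spheroids exposed to compounds for 7 days.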

## COc1c(OCCCN2CCOCC2)ccc2c3n(c(=NC(=O)c4cnc(N)nc4)nc12)CCN3 + CCN1C(C(=O)NC23CCC(C(=O)O)(CC2)CC3)C(c2cccc(Cl)c2F)C2(C(=O)Nc3cc(Cl)ccc32)C12CCCCC2
Curve of first compound, second compound 0.00949 µM
  IC50: 0.199 µM
Curve of first compound, second compound 0.03 µM
  IC50: 0.182 µM
Curve of first compound, second compound 0.0949 µM
  IC50: 0.159 µM
Curve of first compound, second compound 0.3 µM
  IC50: 0.212 µM
Curve of first compound, second compound 0.949 µM
  IC50: 0.105 µM
Curve of first compound, second compound 3 µM
  IC50: 0.125 µM
Second compound 0.00949 µM, first compound 0.00316 µM
  viability, T/C: 93.1%
Second compound 0.00949 µM, first compound 0.01 µM
  viability, T/C: 90.5%
Second compound 0.00949 µM, first compound 0.0316 µM
  viability, T/C: 70.4%
Second compound 0.00949 µM, first compound 0.1 µM
  viability, T/C: 67.6%
Second compound 0.00949 µM, first compound 0.316 µM
  viability, T/C: 39.1%
Second compound 0.00949 µM, first compound 1 µM
  viability, T/C: 24%
Second compound 0.03 µM, first compound 0.00316 µM
  viability, T/C: 97.5%
Second compound 0.03 µM, first compound 0.01 µM
  viability, T/C: 96.7%
Second compound 0.03 µM, first compound 0.0316 µM
  viability, T/C: 80%
Second compound 0.03 µM, first compound 0.1 µM
  viability, T/C: 59.4%
Second compound 0.03 µM, first compound 0.316 µM
  viability, T/C: 42%
Second compound 0.03 µM, first compound 1 µM
  viability, T/C: 34.9%
Second compound 0.0949 µM, first compound 0.00316 µM
  viability, T/C: 87.7%
Second compound 0.0949 µM, first compound 0.01 µM
  viability, T/C: 96.3%
Second compound 0.0949 µM, first compound 0.0316 µM
  viability, T/C: 78.3%
Second compound 0.0949 µM, first compound 0.1 µM
  viability, T/C: 59.1%
Second compound 0.0949 µM, first compound 0.316 µM
  viability, T/C: 37.5%
Second compound 0.0949 µM, first compound 1 µM
  viability, T/C: 31.4%
Second compound 0.3 µM, first compound 0.00316 µM
  viability, T/C: 99.9%
Second compound 0.3 µM, first compound 0.01 µM
  viability, T/C: 83.8%
Second compound 0.3 µM, first compound 0.0316 µM
  viability, T/C: 79.9%
Second compound 0.3 µM, first compound 0.1 µM
  viability, T/C: 64.8%
Second compound 0.3 µM, first compound 0.316 µM
  viability, T/C: 39.9%
Second compound 0.3 µM, first compound 1 µM
  viability, T/C: 29.9%
Second compound 0.949 µM, first compound 0.00316 µM
  viability, T/C: 103%
Second compound 0.949 µM, first compound 0.01 µM
  viability, T/C: 97.3%
Second compound 0.949 µM, first compound 0.0316 µM
  viability, T/C: 75.3%
Second compound 0.949 µM, first compound 0.1 µM
  viability, T/C: 50.9%
Second compound 0.949 µM, first compound 0.316 µM
  viability, T/C: 36.1%
Second compound 0.949 µM, first compound 1 µM
  viability, T/C: 30.1%
Second compound 3 µM, first compound 0.00316 µM
  viability, T/C: 87.5%
Second compound 3 µM, first compound 0.01 µM
  viability, T/C: 85.4%
Second compound 3 µM, first compound 0.0316 µM
  viability, T/C: 78.2%
Second compound 3 µM, first compound 0.1 µM
  viability, T/C: 52.3%
Second compound 3 µM, first compound 0.316 µM
  viability, T/C: 40.1%
Second compound 3 µM, first compound 1 µM
  viability, T/C: 38.7%

## COc1c(OCCCN2CCOCC2)ccc2c3n(c(=NC(=O)c4cnc(N)nc4)nc12)CCN3 + Cc1c(S(C)(=O)=O)c(-c2cc(F)cc(N3CCN(c4ccc(NS(=O)(=O)c5ccc(NC(CCN6CCC(C(=O)OCCCP(=O)(O)O)CC6)CSc6ccccc6)c(S(=O)(=O)C(F)(F)F)c5)cc4)CC3)c2)c(-c2ccc(Cl)cc2)n1C(C)C
Curve of first compound, second compound 0.0316 µM
  IC50: 0.211 µM
Curve of first compound, second compound 0.1 µM
  IC50: 0.142 µM
Curve of first compound, second compound 0.316 µM
  IC50: 0.138 µM
Curve of first compound, second compound 1 µM
  IC50: 0.0737 µM
Curve of first compound, second compound 3.16 µM
  IC50: 0.0553 µM
Curve of first compound, second compound 10 µM
  IC50: 0.00821 µM
Second compound 0.0316 µM, first compound 0.00316 µM
  viability, T/C: 95.5%
Second compound 0.0316 µM, first compound 0.01 µM
  viability, T/C: 90.8%
Second compound 0.0316 µM, first compound 0.0316 µM
  viability, T/C: 79.2%
Second compound 0.0316 µM, first compound 0.1 µM
  viability, T/C: 67.3%
Second compound 0.0316 µM, first compound 0.316 µM
  viability, T/C: 39.9%
Second compound 0.0316 µM, first compound 1 µM
  viability, T/C: 29.4%
Second compound 0.1 µM, first compound 0.00316 µM
  viability, T/C: 89.6%
Second compound 0.1 µM, first compound 0.01 µM
  viability, T/C: 92.5%
Second compound 0.1 µM, first compound 0.0316 µM
  viability, T/C: 84.2%
Second compound 0.1 µM, first compound 0.1 µM
  viability, T/C: 54.6%
Second compound 0.1 µM, first compound 0.316 µM
  viability, T/C: 37.6%
Second compound 0.1 µM, first compound 1 µM
  viability, T/C: 25.6%
Second compound 0.316 µM, first compound 0.00316 µM
  viability, T/C: 85.6%
Second compound 0.316 µM, first compound 0.01 µM
  viability, T/C: 84.2%
Second compound 0.316 µM, first compound 0.0316 µM
  viability, T/C: 65.9%
Second compound 0.316 µM, first compound 0.1 µM
  viability, T/C: 58.1%
Second compound 0.316 µM, first compound 0.316 µM
  viability, T/C: 36.1%
Second compound 0.316 µM, first compound 1 µM
  viability, T/C: 25.4%
Second compound 1 µM, first compound 0.00316 µM
  viability, T/C: 91.6%
Second compound 1 µM, first compound 0.01 µM
  viability, T/C: 76.1%
Second compound 1 µM, first compound 0.0316 µM
  viability, T/C: 62%
Second compound 1 µM, first compound 0.1 µM
  viability, T/C: 47%
Second compound 1 µM, first compound 0.316 µM
  viability, T/C: 31.3%
Second compound 1 µM, first compound 1 µM
  viability, T/C: 24.9%
Second compound 3.16 µM, first compound 0.00316 µM
  viability, T/C: 61.5%
Second compound 3.16 µM, first compound 0.01 µM
  viability, T/C: 62.9%
Second compound 3.16 µM, first compound 0.0316 µM
  viability, T/C: 55.9%
Second compound 3.16 µM, first compound 0.1 µM
  viability, T/C: 43.1%
Second compound 3.16 µM, first compound 0.316 µM
  viability, T/C: 27.1%
Second compound 3.16 µM, first compound 1 µM
  viability, T/C: 18.5%
Second compound 10 µM, first compound 0.00316 µM
  viability, T/C: 52.4%
Second compound 10 µM, first compound 0.01 µM
  viability, T/C: 50%
Second compound 10 µM, first compound 0.0316 µM
  viability, T/C: 42.9%
Second compound 10 µM, first compound 0.1 µM
  viability, T/C: 41.2%
Second compound 10 µM, first compound 0.316 µM
  viability, T/C: 24.8%
Second compound 10 µM, first compound 1 µM
  viability, T/C: 13.4%

## NC(=O)C(=Cn1cnc(-c2cc(C(F)(F)F)cc(C(F)(F)F)c2)n1)c1cncnc1
Compound 0.000949 µM
  viability, T/C: 104% and 98.5% and 48.5%
Compound 0.003 µM
  viability, T/C: 91.6% and 94.9% and 49.6%
Compound 0.00949 µM
  viability, T/C: 87.5% and 83.8% and 46.9%
Compound 0.03 µM
  viability, T/C: 58.5% and 51.1% and 32.2%
Compound 0.0949 µM
  viability, T/C: 18.1% and 18.5% and 16.5%
Compound 0.3 µM
  viability, T/C: 11.2% and 10.3% and 10%

## NC1CCC(NC2CC2c2ccccc2)CC1 (configuration not stated)
Compound 0.000316 µM
  viability, T/C: 92.5% and 90.7%
Compound 0.001 µM
  viability, T/C: 87% and 79.9%
Compound 0.00316 µM
  viability, T/C: 90% and 91.5%
Compound 0.01 µM
  viability, T/C: 95.4% and 94.3%
Compound 0.0316 µM
  viability, T/C: 99.2% and 85.7%
Compound 0.1 µM
  viability, T/C: 88.1% and 89.4%
Curve of compound
  IC50: > 0.1 µM
